Measured values taken from article PMC3758588, “Development of an Ultrasensitive Immunoassay for Detecting Tartrazine” (Sensors (Basel, Switzerland), 2013).

Test system: monoclonal antibody 1F3 (mAb 1F3)
Assay: indirect competitive ELISA against Tar-OVA coating antigen
Format: binding, Mus musculus

IC50: 0.105 ng/mL
SMILES: O=C(O)c1nn(-c2ccc(S(=O)(=O)O)cc2)c(O)c1/N=N/c1ccc(S(=O)(=O)O)cc1 [Tartrazine, trisodium 5-hydroxy-1-(4-sulfonatophenyl)-4-(4-sulfonatophenylazo)-H-pyrazol-3-carboxylate]
